Test results published in patent US6875760B2 (Novo Nordisk A/S, priority 1999, dated 2005).

Target: T1, cloned human glucagon receptor (Homo sapiens, UniProt P47871)
T1 construct: expressed in transfected cells; plasma membrane preparation
Experiment: Glucagon Binding Assay (II)
Settings: plasma membranes of BHK cells expressing the receptor; read-out: Glu Bd Assay (II) IC50
Protocol: Binding of compounds to the glucagon receptor was determined in a competition binding assay using the cloned human glucagon receptor.
The receptor inserted in the pLJ6′ expression vector using EcoRI/SSt1 restriction sites (Lok et al.) was expressed in a baby hamster kidney cell line (A3 BHK 570-25).
The homogenate was resuspended and centrifuged again. The final precipitate containing the plasma membranes was suspended in buffer and stored at −80° C. until use.
Binding assays were carried out in duplicate in polypropylene tubes or microtiter plates. The buffer used in this assay was 50 mM HEPES pH 7.4 containing 5 mM EGTA, 5 mM MgCl2 and 0.005% Tween 20. Sample (glucagon (Bachem CA) or test compounds) was added to each tube or well. Tracer (˜25.000 cpm) was diluted in buffer and was added to each tube or well. 0.5 mg freshly thawed plasma membrane protein diluted in buffer was then added in aliquots to each tube or well. Tubes or plates were incubated at 37° C. for 1 hour. Non-specific binding was determined with 10^−7 M of glucagon. Bound tracer and unbound tracer were then separated by vacuum filtration. The tubes or wells were washed twice with 0.01% Triton X-100 buffer. Scintillation fluid was added to the plates and radioactivity was quantified using a scintillation counter.

T1 sequence (P47871 26-477): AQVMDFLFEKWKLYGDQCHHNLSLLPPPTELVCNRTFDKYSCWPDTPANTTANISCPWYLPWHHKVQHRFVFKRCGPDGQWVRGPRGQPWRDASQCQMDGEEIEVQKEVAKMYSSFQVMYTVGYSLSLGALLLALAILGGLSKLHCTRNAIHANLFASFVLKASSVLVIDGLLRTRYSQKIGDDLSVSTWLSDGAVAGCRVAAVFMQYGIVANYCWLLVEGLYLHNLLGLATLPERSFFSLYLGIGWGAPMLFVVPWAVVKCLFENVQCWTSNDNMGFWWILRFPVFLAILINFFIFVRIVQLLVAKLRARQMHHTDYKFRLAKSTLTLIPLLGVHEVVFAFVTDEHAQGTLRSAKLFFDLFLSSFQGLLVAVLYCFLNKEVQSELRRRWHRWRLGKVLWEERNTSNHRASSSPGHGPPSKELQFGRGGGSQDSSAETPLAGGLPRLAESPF

Row | IC50 | SMILES
1 | 454 nM | Cc1ccc(CN(CCc2ccc(Cl)cc2Cl)Cc2ccc(C(=O)NCCC(=O)O)cc2)cc1 [Example 153]

Target: T2, human glucagon receptor (Homo sapiens, UniProt P47871)
T2 construct: expressed in transfected cells; host or cells: BHK (baby hamster kidney) cells
Experiment: Glucagon Binding Assay (III)
Settings: BHK cell membranes, WGA SPA beads, 125I-glucagon; read-out: Glu Bd Assay (III) IC50
How it was run: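 Membranes from BHK cells transfected with the human receptor, prepared at 4 °C, were used in a WGA-bead scintillation proximity binding format. Plates were shaken for 4 hours, left to settle 8–48 hours and then counted. Non-specific binding was defined with 500 nM glucagon.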

T2 sequence (P47871 26-477): as above

Row | IC50 | SMILES
2 | 320 nM | O=C(O)CCNC(=O)c1ccc(CN(C(=O)Nc2ccc(OC(F)(F)F)cc2)C2CCC(C3CC3)CC2)cc1 (stereo not shown) [Example 249, 3-{4-[1-(4-Cyclopropylcyclohexyl)-3-(4-trifluoromethoxyphenyl)ureidomethyl]benzoylamino}propionic acid]
3 | 18 nM | COc1cc(NC(=O)N(Cc2ccc(C(=O)Nc3nn[nH]n3)cc2)c2ccc(C3CCCCC3)cc2)cc(C(F)(F)F)c1 [Example 319, 4-[1-(4-Cyclohexylphenyl)-3-(3-methoxy-5-trifluoromethylphenyl)ureidomethyl]-N-(2H-tetrazol-5-yl)benzamide]
4 | 198 nM | O=C(Nc1nn[nH]n1)c1ccc(CN(C(=O)c2ccc(Cc3ccccc3)cc2)c2ccc(C3CCCCC3)cc2)cc1 [Example 508, 4-{[(4-Cyclohexylphenyl)-(4-benzylbenzoyl)amino]methyl}-N-(2H-tetrazol-5-yl)benzamide]
5 | 144 nM | CC(C)Oc1ccc(C(=O)N(Cc2ccc(C(=O)Nc3nn[nH]n3)cc2)C2CCC(C(C)(C)C)CC2)cc1 (stereo not shown) [Example 513, 4-{[(4-tert-Butylcyclohexyl)-(4-isopropoxybenzoyl)amino]methyl}-N-(2H-tetrazol-5-yl)benzamide]
6 | 18 nM | CC(C)(C)C1CCC(N(Cc2ccc(C(=O)Nc3nn[nH]n3)cc2)C(=O)Nc2ccc(OC(F)(F)F)c(S(C)(=O)=O)c2)CC1 (stereo not shown) [Example 313, 4-[1-(4-tert-Butylcyclohexyl)-3-(3-methylsulfonyl-4-trifluoromethoxyphenyl)ureidomethyl]-N-(2H-tetrazol-5-yl)benzamide]
7 | 195 nM | CC(C)(C)c1ccc(N(Cc2ccc(C(=O)Nc3nn[nH]n3)cc2)C(=O)Nc2cccc(S(C)(=O)=O)c2)cc1 [Example 449, 4-[1-(4-tert-Butylphenyl)-3-(3-methylsulfonylphenyl)ureidomethyl]-N-(2H-tetrazol-5-yl)benzamide]
8 | 209 nM | CC(O)c1cccc(NC(=O)N(Cc2ccc(C(=O)Nc3nn[nH]n3)cc2)c2ccc(C3CCCCC3)cc2)c1 (stereo not shown) [Example 306, 4-{1-(4-Cyclohexylphenyl)-3-[3-(1-hydroxyethyl)phenyl]ureidomethyl}-N-(2H-tetrazol-5-yl)benzamide]
9 | 66 nM | COc1cccc2cc(C(C)NC(=O)N(Cc3ccc(C(=O)Nc4nn[nH]n4)cc3)c3ccc(C4CCCCC4)cc3)ccc12 (stereo not shown) [Example 379, 4-{1-(4-Cyclohexylphenyl)-3-[1-(5-methoxynaphthalen-2-yl)ethyl]ureidomethyl}-N-(2H-tetrazol-5-yl)benzamide]
10 | 1100 nM | O=C(O)CCNC(=O)c1ccc(CN(CCc2ccc(Cl)c(Cl)c2)C(=O)Nc2ccc(OCc3ccccc3)cc2)cc1 [Example 47, 3-{4-[3-(4-Benzyloxyphenyl)-1-[2-(3,4-dichlorophenyl)ethyl]ureidomethyl]benzoylamino}propionic acid]
11 | 1810 nM | CNC(=O)c1cccc(NC(=O)N(Cc2ccc(C(=O)Nc3nn[nH]n3)cc2)c2ccc(C(C)(C)C)cc2)c1 [Example 458, N-Methyl-3-{3-(4-tert-butylphenyl)-3-[4-(2H-tetrazol-5-ylcarbamoyl)benzyl]ureido}benzamide]
12 | 12 nM | O=C(Nc1nn[nH]n1)c1ccc(CN(C(=O)Nc2ccc3c(c2)C(F)(F)OC(F)(F)O3)c2ccc(C3CCCCC3)cc2)cc1 [Example 366, 4-[1-(4-Cyclohexylphenyl)-3-(2,2,4,4-tetrafluoro-4H-benzo[1,3]dioxin-6-yl)ureidomethyl]-N-(2H-tetrazol-5-yl)benzamide]
13 | 62 nM | CS(=O)(=O)c1cc(NC(=O)N(Cc2ccc(C(=O)Nc3nn[nH]n3)cc2)c2ccc(C3CCCCC3)cc2)ccc1OC(F)(F)F [Example 314, 4-[1-(4-Cyclohexylphenyl)-3-(3-methylsulfonyl-4-trifluoromethoxyphenyl)ureidomethyl]-N-(2H-tetrazol-5-yl)benzamide]
14 | 247 nM | O=C(Nc1nn[nH]n1)c1ccc(CN(C(=O)Nc2ccc(OC(F)(F)F)cc2)c2ccc(N3CCCCC3)cc2)cc1 [Example 318, 4-[1-(4-Piperidin-1-ylphenyl)-3-(4-trifluoromethoxyphenyl)ureidomethyl]-N-(2H-tetrazol-5-yl)benzamide]
15 | 16 nM | CC(C)(C)c1ccc(N(Cc2ccc(C(=O)Nc3nn[nH]n3)cc2)C(=O)Nc2cc(Br)cc(C(F)(F)F)c2)cc1 [Example 263, 4-[3-(3-Bromo-5-trifluoromethylphenyl)-1-(4-tert-butylphenyl)ureidomethyl]-N-(2H-tetrazol-5-yl)benzamide]
16 | 203 nM | CCC1CCC(N(Cc2ccc(C(=O)NCCC(=O)O)cc2)C(=O)Nc2ccc(OC(F)(F)F)cc2)CC1 (stereo not shown) [Example 83, 3-{4-[1-(4-Ethylcyclohexyl)-3-(4-trifluoromethoxyphenyl)ureidomethyl]benzoylamino}propionic acid]
17 | 423 nM | O=C(O)CCNC(=O)c1ccc(CN(C(=O)Nc2cc(C(F)(F)F)cc(C(F)(F)F)c2)C2CCc3ccccc3C2)cc1 (stereo not shown) [Example 86, 3-{4-[3-(3,5-Bis(trifluoromethyl)phenyl)-1-(1,2,3,4-tetrahydronaphthalen-2-yl)ureidomethyl]benzoylamino}propionic acid]
18 | 185 nM | CCCCc1ccc(N(Cc2ccc(C(=O)Nc3nn[nH]n3)cc2)C(=O)Nc2cccc(C#N)c2)cc1 [Example 281, 4-[1-(4-Butylphenyl)-3-(3-cyanophenyl)ureidomethyl]-N-(2H-tetrazol-5-yl)benzamide]
19 | 271 nM | O=C(Nc1nn[nH]n1)c1ccc(CN(C(=O)Nc2ccccc2OC(F)(F)F)c2ccc(C3CCCCC3)cc2)cc1 [Example 350, 4-[1-(4-Cyclohexylphenyl)-3-(2-trifluoromethoxyphenyl)ureidomethyl]-N-(2H-tetrazol-5-yl)benzamide]
20 | 53 nM | O=C(Nc1nn[nH]n1)c1ccc(CN(C(=O)Nc2cccc(S(=O)(=O)C(F)(F)F)c2)c2ccc(C3CCCCC3)cc2)cc1 [Example 303, 4-[1-(4-Cyclohexylphenyl)-3-(3-trifluoromethylsulfonylphenyl)ureidomethyl]-N-(2H-tetrazol-5-yl)benzamide]
21 | 94 nM | CC(C)(C)C1CCC(N(Cc2ccc(C(=O)Nc3nn[nH]n3)cc2)C(=O)/C=C/c2c(Cl)cccc2Cl)CC1 (stereo not shown) [Example 503, 4-({(4-tert-Butylcyclohexyl)-[3-(2,6-dichlorophenyl)acryloyl]amino}methyl)-N-(2H-tetrazol-5-yl)benzamide]
22 | 7 nM | O=C(O)CCNC(=O)c1ccc(CN(C(=O)Nc2ccc3c(c2)C(=O)N(CC2CC2)C3=O)c2ccc(C3=CCCCC3)cc2)cc1 [Example 645, 3-{4-[1-(4-Cyclohex-1-enylphenyl)-3-(N′-[cyclopropylmethyl]phthalimid-4-yl)ureidomethyl]benzoylamino}propionic acid]
23 | 4050 nM | CCOC(=O)N1CCC(NC(=O)N(Cc2ccc(C(=O)NCCC(=O)O)cc2)[C@H]2CC[C@H](C(C)(C)C)CC2)CC1 [Example 245, 4-{3-(trans-4-tert-Butylcyclohexyl)-3-[4-(2-carboxyethylcarbamoyl)benzyl]ureido}piperidine-1-carboxylic acid ethyl ester]
24 | 112 nM | C[C@@H](NC(=O)N(Cc1ccc(C(=O)Nc2nn[nH]n2)cc1)c1ccc(C2=CCCCC2)cc1)c1ccc(Br)cc1 [Example 355, (R)-4-[3-[1-(4-Bromophenyl)ethyl]-1-(cyclohex-1-enylphenyl)ureidomethyl]-N-(2H-tetrazol-5-yl)benzamide]

Row | SMILES | IC50
25 | CC(C)c1ccc(NC(=O)N(Cc2ccc(C(=O)NCCC(=O)O)cc2)C2CCC(C(C)(C)C)CC2)cc1 (stereo not shown) [Example 56, 3-{4-[1-(4-tert-Butylcyclohexyl)-3-(4-isopropylphenyl)ureidomethyl]benzoylamino}propionic acid] | 59 nM
26 | CC(C)(C)C1CCC(N(Cc2ccc(C(=O)NCCC(=O)O)cc2)C(=O)Oc2ccc([N+](=O)[O-])cc2)CC1 (stereo not shown) [Example 399, 3-(4-{[(4-tert-Butylcyclohexyl)-(4-nitrophenoxycarbonyl)amino]methyl}benzoylamino)propionic acid] | 120 nM

Same assay, conditions: Glu Bd Assay (III) IC50 (nM), BHK cell membranes, WGA SPA beads, 125I-glucagon

Row | SMILES | IC50
27 | CC(C)(C)[C@H]1CC[C@H](N(Cc2ccc(C(=O)NCCC(=O)O)cc2)C(=O)Nc2ccc(OC(F)(F)F)cc2Br)CC1 [Example 242, 3-{4-[3-(2-Bromo-4-trifluoromethoxyphenyl)-1-(trans-4-tert-butylcyclohexyl)ureidomethyl]benzoylamino}propionic acid] | 153 nM
28 | CC(C)(C)[C@H]1CC[C@H](N(Cc2ccc(C(=O)NCCC(=O)O)cc2)C(=O)Nc2ccc(OCC3CC3)cc2C(F)(F)F)CC1 [Example 250, 3-{4-[1-(trans-4-tert-Butylcyclohexyl)-3-(4-cyclopropylmethoxy-2-trifluoromethylphenyl)ureidomethyl]benzoylamino}propionic acid] | 182 nM
